Data published in US5476847A, “Derivatives of phosphinic acid useful as endothelin converting enzyme inhibitors” (priority 1994, dated 1995).

The molecules below were run against T1, ECE (Cavia porcellus, UniProt P97739) (assay: In vitro ECE assay (inhibition of [125I]BET-1 to [125I]ET-1 conversion, lubrol-treated guinea pig lung membrane)). Conditions: L-GPLGM, 2 h preincubation at 4° C., 500 pM [125I]BET-1, table of examples, read-out: ECE IC50.
T1 construct: tissue Keystone Biologicals, Cleveland, Ohio; host or cells: frozen guinea pig lungs; lubrol PX-treated lung membranes
T1 sequence (P97739 1-754): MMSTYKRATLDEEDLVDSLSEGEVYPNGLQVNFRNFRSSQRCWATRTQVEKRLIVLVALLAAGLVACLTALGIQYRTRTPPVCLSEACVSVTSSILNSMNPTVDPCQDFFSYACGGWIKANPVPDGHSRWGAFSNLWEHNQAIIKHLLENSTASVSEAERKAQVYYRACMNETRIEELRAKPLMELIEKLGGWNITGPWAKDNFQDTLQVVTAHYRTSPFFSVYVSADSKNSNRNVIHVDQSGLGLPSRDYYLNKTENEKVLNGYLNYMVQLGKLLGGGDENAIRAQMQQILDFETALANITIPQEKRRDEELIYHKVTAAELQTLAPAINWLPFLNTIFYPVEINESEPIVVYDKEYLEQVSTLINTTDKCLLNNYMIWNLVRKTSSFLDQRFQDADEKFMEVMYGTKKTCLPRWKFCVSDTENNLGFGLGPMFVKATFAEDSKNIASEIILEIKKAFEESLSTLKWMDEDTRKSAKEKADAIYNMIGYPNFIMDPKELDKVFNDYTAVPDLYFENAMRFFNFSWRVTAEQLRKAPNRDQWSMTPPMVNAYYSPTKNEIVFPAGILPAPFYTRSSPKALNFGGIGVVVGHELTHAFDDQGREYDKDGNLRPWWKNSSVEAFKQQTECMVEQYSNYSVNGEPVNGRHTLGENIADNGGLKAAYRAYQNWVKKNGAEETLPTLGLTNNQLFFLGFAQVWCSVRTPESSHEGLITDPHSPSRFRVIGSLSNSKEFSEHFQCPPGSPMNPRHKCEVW
Type: biochemical
Text: The ECE assay is based on the quantitative determination of [^125 l]ET-1 released from [^125 l]BET-1 labeled on Tyrosine-13 by binding to the membrane-bound ET receptor. […] GPLGM was also found to contain a high density of ET receptors. Thus, this preparation was utilized as a source of both ECE and a saturating concentration of ET receptors for the quantitative determination of [251l]ET-1 from the conversion of [125l ]BET-1. Under selected experimental conditions of the ECE assay, specific [125l]ET-1 bound was directly related to ECE activity. Assays were carried out in the presence of varying concentrations of test compounds to evaluate their efficacy in inhibiting ECE activity.
Frozen guinea pig lungs (Keystone Biologicals,Cleveland, Ohio) are weighed and homogenized in 10 times gram tissue weight of solution A (50 mM Tris-HCl, pH 7.4, 0.25M sucrose, and 2 mM EDTA) using a Polytron tissue homogenizer (probe PTA-20S). Homogenization is repeated four times at speed setting seven each for 10 s and with 5-8 min intervals on ice in between homogenization. Homogenates are spun for 30 min at 2000 g (4100 rpm in an SS34 rotor or 3800 rpm in an SA-600 rotor). Supernatants containing membranes are carefully decanted and saved. Pellets are rehomogenized in solution A as described, and homogenates are spun at 2000 g for 30 min. Supernatants are removed, mixed with the supernatants from the first spin, and spun at 37000 rpm in a 45 Ti rotor (107022 g) for 60 min. Pellets containing membranes are suspended in solution B (10 mM Tris-HCl, pH 7.4, and 0.125M sucrose) using a Dounce homogenizer. Samples are divided into 1 ml fractions, rapidly frozen in a dry ice methanol bath, and stored at -80° C. All steps are carried out at 4° C.
GPLGM fractions prepared as described above are thawed and resuspended at a concentration of 1 mg membrane protein/mL in a solution containing 0.06% lubrol PX, 50 mM Tris-HCl (pH 7.4), and 100 mM NaCl. Stir the mixture for 1 h and then spin for 1 h at 37000 rpm in a 45 Ti rotor (107022 g). Discard the supernatants and resuspend the pellets in a solution containing 50 mM Tris-HCl (pH 7.4), and 100 mM NaCl using a Dounce homogenizer, and adjust the final volume to half the original volume. Spin the homogenates for 1 h at 37000 rpm in a 45 Ti rotor (107022 g). Suspend the membrane pellets in solution B and treat as described above. All steps are performed at 4° C.
ECE Assay: Samples of L-GPLGM containing 20 μg protein are incubated in a solution containing 100 mM Tris-HCl (pH 7), 100 mM NaCl, and 5 mg/ml BSA (Fraction V, 98-99% albumin) (Sigma Chemical Co.) at a final reaction volume of 100 μL. The ECE assay is initiated by the addition of [^125 l]BET-1 to obtain a final concentration of 500 pM. Reactions are carried out for 30 min at 37° C. Reactions are terminated by addition of 4 mL of solution C (10 mM Tris-HCl, pH 7.4, and 150 mM NaCl) at 4° C. followed by rapid filtration on Whatman GF/B glass microfiber filters. Filters are presoaked for 1 h at 4° C. in a solution containing 50 mM Tris-HCl (pH 7.4), 10 mg/mL BSA, and 0.1% sodium azide. Wash test tubes and filters four times with 4 mL of solution C at 4° C., and count radioactivity retained on the filters in a γ counter. Non-specific binding is determined in the presence of 1 μM of unlabeled ET-1 (Peninsula Laboratories, Inc., Belmont, Calif.) in the reaction mixture. All reactions are performed in duplicate.
To test the effect of test compounds on ECE activity, ECE assays are carried out in the presence of varying concentrations of the compounds. Assays are initiated following a 2 h incubation of L-GPLGM with the compound at 4° C. ECE activity in the presence of compounds is expressed as a percentage of control ECE activity of the membrane preparation, which is determined simultaneously.

Row | IC50 | SMILES
1 | 0.055 µM | CC(C)CC(CP(=O)(O)C(CC1CCCC1)NC(=O)[C@H](CCCCNC(=O)OCc1ccccc1)NS(C)(=O)=O)C(=O)N[C@@H](Cc1c[nH]c2ccccc12)C(=O)O (stereo partly drawn) [Example 10E]
2 | 0.09 µM | NCc1ccc(C(=O)N[C@@H](Cc2ccccc2)P(=O)(O)CC2(C(=O)N[C@@H](Cc3c[nH]c4ccccc34)C(=O)O)CCCC2)cc1 [Example 6]
3 | 0.05 µM | O=C(NC(Cc1ccc(C(=O)N2CCOCC2)cc1)P(=O)(O)CC1(C(=O)N[C@@H](Cc2c[nH]c3ccccc23)C(=O)O)CCCC1)OCc1ccccc1 (stereo partly drawn) [Example 7]
4 | 0.065 µM | CC(C)CC(CP(=O)(O)C(Cc1ccc2ccccc2c1)NC(=O)[C@H](CCCCNC(=O)OCc1ccccc1)NS(C)(=O)=O)C(=O)N[C@@H](Cc1c[nH]c2ccccc12)C(=O)O (single isomer, unassigned) [Example 9A]
5 | 0.04 µM | CC(C)CC(CP(=O)(O)C(CC(C)C)NC(=O)[C@H](CCCCNC(=O)OCc1ccccc1)NS(C)(=O)=O)C(=O)N[C@@H](Cc1c[nH]c2ccccc12)C(=O)O (single isomer, unassigned) [Example 10A]
6 | 4.5 µM | CC(C)CC(CP(=O)(O)C(Cc1ccc2ccccc2c1)NC(=O)[C@H](CCCCNC(=O)OCc1ccccc1)NS(C)(=O)=O)C(=O)N[C@@H](Cc1c[nH]c2ccccc12)C(=O)O (single isomer, unassigned) [Example 9C]
7 | 0.49 µM | O=C(NC(Cc1ccc(C(=O)O)cc1)P(=O)(O)CC1(C(=O)N[C@@H](Cc2c[nH]c3ccccc23)C(=O)O)CCCC1)OCc1ccccc1 (stereo partly drawn) [Example 8B]
8 | 0.25 µM | O=C(N[C@@H](Cc1ccccc1)P(=O)(O)CC1(C(=O)N[C@@H](Cc2c[nH]c3ccccc23)C(=O)O)CCCC1)c1ccccc1 [Example 6.2B]
9 | 4.5 µM | CC(C)CC(CP(=O)(O)C(Cc1ccc2ccccc2c1)NC(=O)[C@H](CCCCNC(=O)OCc1ccccc1)NS(C)(=O)=O)C(=O)N[C@@H](Cc1c[nH]c2ccccc12)C(=O)O (single isomer, unassigned) [Example 9B]
10 | 0.29 µM | NC(=O)c1ccc(CC(NC(=O)OCc2ccccc2)P(=O)(O)CC2(C(=O)N[C@@H](Cc3c[nH]c4ccccc34)C(=O)O)CCCC2)cc1 (stereo partly drawn) [Example 8A]
11 | 0.15 µM | CC(C)CC(CP(=O)(O)C(CCCCO)NC(=O)[C@H](CC(C)C)NS(C)(=O)=O)C(=O)N[C@@H](Cc1c[nH]c2ccccc12)C(=O)O (stereo partly drawn) [Example 10D]

Continued, molecule first:

Row | SMILES | IC50
12 | CS(=O)(=O)N[C@@H](CCCCN)C(=O)N[C@@H](Cc1ccccc1)P(=O)(O)CC1(C(=O)N[C@@H](Cc2ccc(O)cc2)C(=O)O)CCCC1 [Example 5C] | 0.1 µM
13 | O=C(N[C@@H](Cc1ccccc1)P(=O)(O)CC1(C(=O)N[C@@H](Cc2ccc(O)cc2)C(=O)O)CCCC1)OCc1ccccc1 [Example 2] | 0.13 µM
14 | CS(=O)(=O)N[C@@H](CCCCNC(=O)OCc1ccccc1)C(=O)N[C@@H](Cc1ccccc1)P(=O)(O)CC1(C(=O)N[C@@H](Cc2ccc(O)cc2)C(=O)O)CCCC1 [Example 4] | 0.119 µM
15 | CS(=O)(=O)N[C@@H](CCCCNC(=O)OCc1ccccc1)C(=O)NC(Cc1ccc2ccccc2c1)P(=O)(O)CC1(C(=O)N[C@@H](Cc2c[nH]c3ccccc23)C(=O)O)CCCC1 (stereo partly drawn) [Example 3C] | 0.055 µM
16 | COc1ccc(CC(NC(=O)OCc2ccccc2)P(=O)(O)CC2(C(=O)N[C@@H](Cc3c[nH]c4ccccc34)C(=O)O)CCCC2)cc1 (stereo partly drawn) [Example 1A] | 0.115 µM
17 | O=C(NC(Cc1ccc(OCc2ccccc2)cc1)P(=O)(O)CC1(C(=O)N[C@@H](Cc2c[nH]c3ccccc23)C(=O)O)CCCC1)OCc1ccccc1 (stereo partly drawn) [Example 1B] | 0.4 µM
18 | O=C(NC(Cc1ccccc1)P(=O)(O)CC1(C(=O)N[C@@H](Cc2c[nH]c3ccccc23)C(=O)O)CCCCCC1)OCc1ccccc1 (stereo partly drawn) [Example 1C] | 0.8 µM
19 | O=C(N[C@@H](Cc1ccccc1)P(=O)(O)CC1(C(=O)N[C@@H](Cc2c[nH]c3ccccc23)C(=O)O)CCCC1)OCc1ccccc1 [Example 1] | 0.19 µM
20 | COc1ccc(CC(NC(=O)[C@H](CCCCNC(=O)OCc2ccccc2)NS(C)(=O)=O)P(=O)(O)CC2(C(=O)N[C@@H](Cc3c[nH]c4ccccc34)C(=O)O)CCCC2)cc1 (stereo partly drawn) [Example 3A] | 0.05 µM

Same assay, conditions: L-GPLGM, table of additional compounds, read-out: IC50 (in vitro ECE inhibition activity)

Row | IC50 | SMILES
21 | 1.3 µM | CC(C)C(CP(=O)(O)C(Cc1ccccc1)NC(=O)OCc1ccccc1)C(=O)N[C@@H](Cc1c[nH]c2ccccc12)C(=O)O (stereo partly drawn) [Cbz, C6 H5CH2, H, iso-propyl]
22 | 1.1 µM | CC(C)C(CP(=O)(O)C(Cc1ccccc1)NC(=O)C(CCCCNC(=O)OCc1ccccc1)NC(=O)OCc1ccccc1)C(=O)N[C@@H](Cc1c[nH]c2ccccc12)C(=O)O (stereo partly drawn)
23 | 0.8 µM | CC(C)C(CP(=O)(O)C(Cc1ccc2ccccc2c1)NC(=O)C(CCCCNC(=O)OCc1ccccc1)NS(C)(=O)=O)C(=O)N[C@@H](Cc1c[nH]c2ccccc12)C(=O)O (stereo partly drawn)
24 | 0.068 µM | CC(C)CC(CP(=O)(O)C(Cc1ccc2ccccc2c1)NC(=O)C(CCCCN)NS(C)(=O)=O)C(=O)N[C@@H](Cc1c[nH]c2ccccc12)C(=O)O (single isomer, unassigned) [listing 1 of 3 here]
25 | 0.2 µM | CC(C)CC(CP(=O)(O)C(CCCCO)NC(=O)OCc1ccccc1)C(=O)N[C@@H](Cc1c[nH]c2ccccc12)C(=O)O (stereo partly drawn) [Cbz, HO(CH2)4, H, iso-butyl]
26 | 0.55 µM | CC(C)C(CP(=O)(O)C(Cc1ccccc1)NC(=O)C(CCCN)NS(C)(=O)=O)C(=O)N[C@@H](Cc1c[nH]c2ccccc12)C(=O)O (stereo partly drawn)
27 | 1 µM | CC(C)CC(CP(=O)(O)C(CC1CCCC1)NC(=O)OCc1ccccc1)C(=O)N[C@@H](Cc1c[nH]c2ccccc12)C(=O)O (stereo partly drawn) [Cbz, cyclopentylmethyl, H, iso-butyl]
28 | 0.06 µM | CC(C)CC(CP(=O)(O)C(Cc1ccc2ccccc2c1)NC(=O)C(CCCCN)NS(C)(=O)=O)C(=O)N[C@@H](Cc1c[nH]c2ccccc12)C(=O)O (single isomer, unassigned) [listing 2 of 3 here]
29 | 0.027 µM | CC(C)CC(CP(=O)(O)C(Cc1ccc2ccccc2c1)NC(=O)C(CCCCN)NS(C)(=O)=O)C(=O)N[C@@H](Cc1c[nH]c2ccccc12)C(=O)O (single isomer, unassigned) [listing 3 of 3 here]
30 | 0.26 µM | CC(C)CC(NC(=O)C(CCCCNC(=O)OCc1ccccc1)NS(C)(=O)=O)P(=O)(O)CC1(C(=O)N[C@@H](Cc2c[nH]c3ccccc23)C(=O)O)CCCC1 (stereo partly drawn)
